# Patent US20090124555A1, “USE OF HISTOGRANIN AND HISTOGRANIN-LIKE COMPOUNDS AS INHIBITORS OF P2X7 RECEPTOR FUNCTION AND AS ANTI-ARTHRITIC AGENTS” (priority 2005, published 2009)
# Tests used:
# P2X7 receptor [1] = molecular target: T1, P2X7 receptor (Rattus norvegicus, UniProt Q64663); experiment: ATP-induced extracellular release of IL-1.beta and IL-1.alpha from macrophages in vitro (ELISA); format: cell-based
# T1 construct: Alveolar macrophages (AM) were recovered from normal rats by bronchoalveolar lavage; endogenous in cells; host or cells: primary alveolar macrophages from male Wistar rats (bronchoalveolar lavage)
# T1 sequence (Q64663 1-595): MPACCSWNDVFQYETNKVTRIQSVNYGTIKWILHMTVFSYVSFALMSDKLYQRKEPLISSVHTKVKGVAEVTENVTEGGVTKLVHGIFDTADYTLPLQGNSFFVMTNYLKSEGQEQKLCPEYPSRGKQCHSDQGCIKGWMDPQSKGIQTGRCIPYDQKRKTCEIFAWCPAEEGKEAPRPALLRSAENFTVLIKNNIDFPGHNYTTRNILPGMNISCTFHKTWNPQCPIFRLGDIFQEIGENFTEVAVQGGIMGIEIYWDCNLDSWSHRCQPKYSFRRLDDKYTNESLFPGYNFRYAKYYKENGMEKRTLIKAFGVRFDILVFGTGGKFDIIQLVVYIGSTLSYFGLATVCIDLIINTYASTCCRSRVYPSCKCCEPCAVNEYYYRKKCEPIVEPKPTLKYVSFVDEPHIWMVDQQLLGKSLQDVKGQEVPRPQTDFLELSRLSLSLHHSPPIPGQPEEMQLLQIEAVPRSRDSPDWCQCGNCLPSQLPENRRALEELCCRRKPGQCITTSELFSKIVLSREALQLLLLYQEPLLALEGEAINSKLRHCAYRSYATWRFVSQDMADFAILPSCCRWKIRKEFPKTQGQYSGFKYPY
# Experimental: Alveolar macrophages (1×10^6 cells/ml) were incubated in complete medium in 96 wells tissue culture plates overnight at 37° C. in 5% CO2. The medium was changed for fresh medium and cells were incubated with Lipopolysaccharide (LPS. 1 μg/ml) (Sigma) for 3 h followed by ATP (5 mM) or 3′-0-(4-benzoylbenzoyl ATP (BZATP) (0.5 mM. Molecular Robes) for 1 h in the presence and absence of HN compounds (10^−9M and 10^−8M) or Brilliant Blue G (BBG, 5×10^−9 M, Sigma). In some experiments, cells were pre-treated with oxidized ATP (oATP, 100 μM, Sigma) for 2 h before LPS and ATP or BzATP stimulation. In other experiments, cells were stimulated with LPS (1 μg/ml) for 3 h and subsequently with Nigericin (20 μM) for 30 min in the presence and absence of HN compounds (10^−9, 10^−8M). Controls were incubated with LPS only. After incubation, cell culture media were collected, centrifuged in a microfuge (Eppendorf) and the cell-free supernatants were collected and stored at −80° C. for cytokine measurement. Levels of immunoreactive IL-1.beta and IL-1.alpha were assayed using ELISA (R&D Systems, Minneapolis, Minn. and Biosource (Medicorp), Camarillo, Calif. respectively) performed according to the manufacturer's protocol.
# P2X7 receptor [2] = molecular target: T1, P2X7 receptor; experiment: ATP-induced membrane permeabilization and pore formation (ethidium bromide uptake) in alveolar macrophages; format: cell-based; settings: for ATP-mediated permeabilization to ethidium bromide / inhibition of ATP-induced pore formation (ethidium bromide uptake): ATP 5 mM; for ATP-mediated permeabilization to ethidium bromide / BzATP-mediated permeabilization to ethidium bromide: pre-treatment with oATP 0.1 mM 2 h or BBG 5×10^−9M 5 min; for BzATP-mediated permeabilization to ethidium bromide / inhibition of BzATP-induced pore formation: BzATP 0.5 mM; for inhibition of ATP-induced pore formation (ethidium bromide uptake): 5 min, compound 10^−9M; for inhibition of ATP-induced pore formation (ethidium bromide uptake) / inhibition of BzATP-induced pore formation: rat alveolar macrophages, FIG. 1A
# Experimental: Alveolar macrophages (AM) were recovered from normal rats by bronchoalveolar lavage (BAL) as described previously (Lemaire (1991) Am. J. Pathol. 138:487-495). The lungs were lavaged with 7 ml-aliquots of sterile phosphate buffered saline (pH 7.4; Wisent, St. Bruno, QC), and BAL cells were obtained by centrifugation at 200×g at 4° C. for 5 minutes. The cells were resuspended in RPMI 1640 medium (Wisent, St-Bruno, QC) supplemented with 0.5% dialysed fetal bovine serum (Wisent. St-Bruno, QC), 0.005% gentamycin (Schering Canada Inc. Pointe Claire. QC) and 0.8% HEPES (Sigma Chemical Co., St-Louis, MO) which will henceforth be referred to as complete culture medium (CM).
# Freshly isolated AM (1×10^5) were incubated in 200 μl complete medium in 96 wells tissue culture plates for 24 h. Following centrifugation, medium was replaced with saline solution containing 125 mM NaCl, 5 mM KCL, 1 mM MgSO4, 1 mM Na2HPO4, 5.5 mM glucose, 5 mM NaHCO3, 1 mM CaCl2 and 20 mM Hepes, pH 7.6. Ethidium bromide was added to a final concentration of 20 μM and AM were stimulated with ATP (5 mM, Sigma), 3′-O-(4-benzoylbenzoyl ATP (BzATP) (0.5 mM, Molecular Probes) or uridine 5′-triphosphate (UTP) (Sigma), at 37° C. for 5 minutes. In some experiments, cells were pre-treated with oxidized ATP (oATP, 0.1 mM, Sigma) for 2 h or Brilliant Blue G (BBG, 5×10^−9M, Sigma) for 5 minutes, or HN compounds for 5 minutes before ATP stimulation. After ATP stimulation, the plate was centrifuged (200×g, 1 minute), culture supernatants were replaced with fresh buffer and the fluorescence was analyzed using a Zeiss Axiovert S1100 TV inverted microscope equipped with a rhodamine filter and a 32× objective. Images were captured and analysed with the Northern Eclipse image analysis software. Data are expressed as percentage of cells that become permeabilized to ethidium bromide.
# P2X7 receptor [3] = molecular target: T2, P2X7 receptor (Mus musculus, UniProt Q9Z1M0); experiment: ATP-induced extracellular release of IL-1.beta, IL-1.alpha and IL-6 in vivo (peritoneal lavage of LPS-primed mice); settings: 0.1 mg and 0.3 mg i.p. 15 min before ATP, FIG. 6B
# T2 construct: from tissue; host or cells: living mice; peritoneal cavity (lavage fluid analysed)
# T2 sequence (Q9Z1M0 1-595): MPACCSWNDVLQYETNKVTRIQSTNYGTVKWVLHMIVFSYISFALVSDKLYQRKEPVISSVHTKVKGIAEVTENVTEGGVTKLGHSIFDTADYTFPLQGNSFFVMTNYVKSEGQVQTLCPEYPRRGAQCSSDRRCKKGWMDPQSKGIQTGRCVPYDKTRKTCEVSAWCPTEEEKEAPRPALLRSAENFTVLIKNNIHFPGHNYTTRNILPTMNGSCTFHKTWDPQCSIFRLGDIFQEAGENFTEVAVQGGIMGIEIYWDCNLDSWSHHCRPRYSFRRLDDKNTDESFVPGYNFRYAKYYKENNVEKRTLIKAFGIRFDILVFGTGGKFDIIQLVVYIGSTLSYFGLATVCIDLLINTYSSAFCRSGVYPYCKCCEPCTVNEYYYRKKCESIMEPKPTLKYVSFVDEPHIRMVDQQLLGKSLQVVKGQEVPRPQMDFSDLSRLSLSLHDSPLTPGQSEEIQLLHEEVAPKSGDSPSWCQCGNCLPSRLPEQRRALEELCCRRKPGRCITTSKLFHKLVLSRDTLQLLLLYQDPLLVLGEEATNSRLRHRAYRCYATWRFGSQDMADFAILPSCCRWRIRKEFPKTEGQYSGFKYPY
# Experimental: Groups of mice were injected intraperitoneally (i.p.) with 50 μg of LPS. Two hours after this LPS injection, mice were injected i.p. with either PBS or ATP (5 mM, adjusted to pH 7), or with HN compounds (0.1 mg and 0.3 mg) 15 minutes before ATP injection. Mice were sacrificed 30 minutes (IL-1.beta and IL-1.alpha) or 120 minutes (IL-6) after the ATP or PBS injection and peritoneal cavities were lavaged each with 3 ml PBS. Samples of peritoneal lavages were centrifuged, cell-free supernatants were collected and tested for the presence of IL-1.beta, IL-1.alpha and IL-6 using ELISA (R&D Systems, Minneapolis, Minn., and Biosource, Camarillo, Calif., respectively).
# P2X7 receptor [4] = molecular target: T1, P2X7 receptor; experiment: ATP-induced apoptosis, cell death ELISA of cytoplasmic oligonucleosomal DNA; format: cell-based; settings: ATP 5 mM 30 min, read after 24 h; compound 10^−9M
# Experimental: This assay using mouse monoclonal antibodies directed against DNA and histones respectively, allows the quantitative determination of mono- and oligonucleosomes in the cytoplasmic fraction of cell lysates prepared from macrophages (Li et al. (1997) Toxicol. Appl. Pharmacol. 145:331-339). Alveolar macrophages (1×10^5) were incubated in 200 μl complete medium in 96 wells tissue culture plates with ATP (5 mM) in the presence and absence of HN compounds for 30 minutes and media was replaced with fresh culture media. After 24 h, the plate was centrifuged, the culture supernatants removed and macrophages were lysed in lysis buffer for 30 min on ice and centrifuged at 14,000 rpm for 15 min at 4° C. Cytoplasmic oligonucleosomal DNA was measured in cell supernatants by ELISA.
compound,measurement,setting,value
"CCOc1ccc(Nc2ccc(/C(=C3C=C/C(=[N+](/CC)Cc4cccc(S(=O)(=O)[O-])c4)C=C/3C)c3ccc(N(CC)Cc4cccc(S(=O)(=O)[O-])c4)cc3C)cc2)cc1.[Na+] [Brilliant Blue G, reference compound]",BzATP-induced IL-1.beta release,"P2X7 receptor [1]; LPS-primed macrophages, BzATP 0.5 mM, BBG 5×10^−9M, FIG. 3A",significantly reduced
same,ATP-mediated permeabilization to ethidium bromide,P2X7 receptor [2],blocked
same,BzATP-mediated permeabilization to ethidium bromide,P2X7 receptor [2],blocked
"N=C(N)NCCC[C@@H](Nc1ccccc1NC(=O)Cc1ccc(O)cc1)C(N)=O [C-12, N-5-guanidinopentanamide-(2R)-yl-2-N-(p-hydroxphenylacetyl) phenylenediamine]","IL-1.beta in peritoneal lavage in response to ATP, various HN compounds",P2X7 receptor [3],reduced levels
same,inhibition of ATP-induced pore formation (ethidium bromide uptake),P2X7 receptor [2],inhibited significantly
"N=C(N)NCCC[C@@H](Nc1ccc(C(=O)c2ccc(Cl)cc2)cc1NC(=O)Cc1ccc(O)cc1)C(N)=O [C-13, N-5-guanidinopentanamide-(2R)-yl-2-N-(p-hydroxyphenylacetyl)-4-(p-chlorobenzoyl)-phenylenediamine]","IL-1.beta in peritoneal lavage in response to ATP, various HN compounds",P2X7 receptor [3],reduced levels
"N=C(N)NCCC[C@H](C(N)=O)n1c(Cc2ccc(O)cc2)nc2cc(C(=O)O)ccc21 [C-15, N-5-guanidinopentanamide-(2R)-yl 2-(p-hydroxylbenzyl)5-carboxybenzimidazole]","inhibition of extracellular IL-1.beta release, ATP stimulation","P2X7 receptor [1]; LPS 3 h then ATP 5 mM 1 h, compound 10^−9 M, FIG. 3A",significant inhibition
same,"inhibition of extracellular IL-1.beta release, BzATP stimulation","P2X7 receptor [1]; LPS 3 h then BzATP 0.5 mM 1 h, compound 10^−9 M, FIG. 3A",significant inhibition
same,IC50,"P2X7 receptor [1]; LPS-primed rat alveolar macrophages, ATP 5 mM, FIG. 3B, read-out: half-maximal response, inhibition of ATP-induced IL-1.beta release",~0.1 nM
same,"inhibition of ATP-induced IL-1.beta release, concentration-response","P2X7 receptor [1]; inhibition already seen at 10^−12M, FIG. 3B",dose-dependent
same,"IL-1.beta in peritoneal lavage in response to ATP, various HN compounds",P2X7 receptor [3],reduced levels
same,cytoplasmic oligonucleosomal DNA in response to ATP,P2X7 receptor [4],inhibited
same,"inhibition of ATP-induced pore formation, concentration-response","P2X7 receptor [2]; 10^−12 M to 10^−6 M, dose-dependent manner, FIG. 1B",inhibited
same,inhibition of ATP-induced pore formation (ethidium bromide uptake),P2X7 receptor [2],inhibited significantly
same,inhibition of BzATP-induced pore formation,P2X7 receptor [2],inhibit
"Nc1ncnc2c1ncn2[C@@H](C=O)O[C@@H](C=O)COP(=O)(O)OP(=O)(O)OP(=O)(O)O [oATP, oxidized ATP, reference compound]",ATP-induced IL-1.beta release,"P2X7 receptor [1]; LPS-primed macrophages, ATP 5 mM, oATP 100 μM pre-treatment 2 h, FIG. 3A",significantly reduced
same,ATP-mediated permeabilization to ethidium bromide,P2X7 receptor [2],blocked
same,BzATP-mediated permeabilization to ethidium bromide,P2X7 receptor [2],blocked
"Cyclic (-Gly-(p-chloro)Phe-Tyr-D-Arg-) (GFYR; HELM PEPTIDE1{G.[O=C([C@H](Cc1ccc(Cl)cc1)N[*:1])[*:2]].Y.[dR]}$PEPTIDE1,PEPTIDE1,1:R1-4:R2$$$V2.0; SMILES N=C(N)NCCC[C@H]1NC(=O)[C@H](Cc2ccc(O)cc2)NC(=O)[C@H](Cc2ccc(Cl)cc2)NC(=O)CNC1=O) [C-10]","IL-1.beta in peritoneal lavage in response to ATP, various HN compounds",P2X7 receptor [3],reduced levels
same,inhibition of ATP-induced pore formation (ethidium bromide uptake),P2X7 receptor [2],inhibited significantly
same,inhibition of BzATP-induced pore formation,P2X7 receptor [2],inhibit
"Cyclic (-Gly-D-Gln-Tyr-D-Arg-) (GQYR; HELM PEPTIDE1{G.[dQ].Y.[dR]}$PEPTIDE1,PEPTIDE1,1:R1-4:R2$$$V2.0; SMILES N=C(N)NCCC[C@H]1NC(=O)[C@H](Cc2ccc(O)cc2)NC(=O)[C@@H](CCC(N)=O)NC(=O)CNC1=O) [C-8]",inhibition of ATP-induced pore formation (ethidium bromide uptake),P2X7 receptor [2],inhibited significantly
"Cyclic (-Gly-Gln-Tyr-D-Arg-) (GQYR; HELM PEPTIDE1{G.Q.Y.[dR]}$PEPTIDE1,PEPTIDE1,1:R1-4:R2$$$V2.0; SMILES N=C(N)NCCC[C@H]1NC(=O)[C@H](Cc2ccc(O)cc2)NC(=O)[C@H](CCC(N)=O)NC(=O)CNC1=O) [C-7]",inhibition of ATP-induced pore formation (ethidium bromide uptake),P2X7 receptor [2],inhibited significantly
H-Gly-Gln-Gly-Arg-Thr-Leu-Tyr-Gly-Phe-COOH (H-GQGRTLYGF-OH) [C-3],cytoplasmic oligonucleosomal DNA in response to ATP,P2X7 receptor [4],inhibited
H-Val-Val-Tyr-Ala-Leu-Lys-Arg-Gln-Gly-[S-(3nitro-2-pyridine sulfenyl)]Cys-Thr-Leu-Tyr-Gly-Phe- [C-5],"IL-1.beta in peritoneal lavage in response to ATP, various HN compounds",P2X7 receptor [3],reduced levels
